Laboratory results as given in patent US9433621B2, “Substituted pyridine and pyrimidine derivatives and their use in treating viral infections” (Merck Sharp & Dohme Corp., priority 2010, dated 2016).

tested on: HCV replicon; assay: Cell-Based HCV Replicon Assay; settings: Hepatitis C virus; HCV Replicon assay, EC90 given as numeric bound, Table VI; read-out: EC90
How it was run: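 EC50 and EC90 taken from sigmoid fits of ΔCT (5B minus GAPDH) as the concentrations raising ΔCT by 1 and 3.2 over baseline, via multiplex real-time RT-PCR on lysates after 3 days. Replicon cells at 5000/well; 10 two-fold dilutions from 25–1 μM, 0.5% DMSO, 10% FBS.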

SMILES | EC90
CO[C@H](C)CN(C)c1nc(C)c(-c2nc3c(C)nccc3s2)c(N[C@@H]2C[C@H](C(C)(C)O)[C@@H](O)[C@H]2O)n1 [Example 5171] | > 1 µM
Cc1nc(NC2(CS(=O)(=O)C(C)(C)C)CCCCC2)nc(N[C@@H]2C[C@H](C(C)(C)O)[C@@H](O)[C@H]2O)c1-c1nc2c(C)nccc2s1 [Example 5197] | > 1 µM
COCC1(Nc2nc(C)c(-c3nc4c(C)nccc4s3)c(N[C@@H]3C[C@H](C(C)(C)O)[C@@H](O)[C@H]3O)n2)CCCCC1 [Example 5198] | > 1 µM
COCCNc1nc(C)c(-c2nc3c(C)nccc3s2)c(N2C[C@H]3C[C@@H]2[C@H](O)[C@@H]3O)n1 [Example 5214] | > 1 µM

same assay, conditions: Hepatitis C virus; HCV Replicon assay, EC90 range, Table VI; read-out: EC90

SMILES | EC90
Cc1nc(N[C@H](C)C2CC2)nc(N[C@@H]2C[C@H](C(C)(F)F)[C@@H](O)[C@H]2O)c1-c1nc2c(C3CC3)nccc2s1 [Example 5172] | < 0.5 µM
Cc1nc(NC2CC2)nc(N[C@@H]2C[C@H](C(C)(F)F)[C@@H](O)[C@H]2O)c1-c1nc2c(C3CC3)nccc2s1 [Example 5173] | < 0.5 µM
CCCNc1nc(C)c(-c2nc3c(C4CC4)nccc3s2)c(N[C@@H]2C[C@H](C(C)(F)F)[C@@H](O)[C@H]2O)n1 [Example 5174] | < 0.5 µM
Cc1nc(NCC(C)C)nc(N[C@@H]2C[C@H](C(C)(F)F)[C@@H](O)[C@H]2O)c1-c1nc2c(C3CC3)nccc2s1 [Example 5175] | < 0.5 µM
Cc1nc(NCC(C)(C)C)nc(N[C@@H]2C[C@H](C(C)(F)F)[C@@H](O)[C@H]2O)c1-c1nc2c(C3CC3)nccc2s1 [Example 5176] | < 0.5 µM
Cc1nc(NCC2CC(F)(F)C2)nc(N[C@@H]2C[C@H](C(C)(F)F)[C@@H](O)[C@H]2O)c1-c1nc2c(C3CC3)nccc2s1 [Example 5177] | < 0.5 µM
Cc1nc(NC2CC2)nc(N[C@@H]2C[C@H](C(F)F)[C@@H](O)[C@H]2O)c1-c1nc2c(C3CC3)nccc2s1 [Example 5178] | < 0.5 µM
CCCNc1nc(C)c(-c2nc3c(C4CC4)nccc3s2)c(N[C@@H]2C[C@H](C(F)F)[C@@H](O)[C@H]2O)n1 [Example 5179] | < 0.5 µM
Cc1nc(NCC(C)C)nc(N[C@@H]2C[C@H](C(F)F)[C@@H](O)[C@H]2O)c1-c1nc2c(C3CC3)nccc2s1 [Example 5180] | < 0.5 µM
Cc1nc(NCC(C)(C)C)nc(N[C@@H]2C[C@H](C(F)F)[C@@H](O)[C@H]2O)c1-c1nc2c(C3CC3)nccc2s1 [Example 5181] | < 0.5 µM
Cc1nc(NCC2CC(F)(F)C2)nc(N[C@@H]2C[C@H](C(F)F)[C@@H](O)[C@H]2O)c1-c1nc2c(C3CC3)nccc2s1 [Example 5182] | < 0.5 µM
Cc1nc(NCC2CCC2)nc(N[C@@H]2C[C@H](C(C)(F)F)[C@@H](O)[C@H]2O)c1-c1nc2c(C3CC3)nccc2s1 [Example 5183] | < 0.5 µM
Cc1nc(N[C@H](C)C2CCC2)nc(N[C@@H]2C[C@H](C(C)(F)F)[C@@H](O)[C@H]2O)c1-c1nc2c(C3CC3)nccc2s1 [Example 5184] | < 0.5 µM
Cc1nc(NCC2CCC2)nc(N[C@@H]2C[C@H](C(F)F)[C@@H](O)[C@H]2O)c1-c1nc2c(C3CC3)nccc2s1 [Example 5185] | < 0.5 µM
Cc1nc(N[C@H](C)C2CCC2)nc(N[C@@H]2C[C@H](C(F)F)[C@@H](O)[C@H]2O)c1-c1nc2c(C3CC3)nccc2s1 [Example 5186] | < 0.5 µM
COc1nc(C)c(-c2nc3c(C4CC4)nccc3s2)c(N[C@@H]2C[C@H](C(C)(F)F)[C@@H](O)[C@H]2O)n1 [Example 5187] | 5 to 25 µM
Cc1nc(N)nc(N[C@@H]2C[C@H](C(C)(F)F)[C@@H](O)[C@H]2O)c1-c1nc2c(C3CC3)nccc2s1 [Example 5188] | < 0.5 µM
C#CCCNc1nc(C)c(-c2nc3c(C4CC4)nccc3s2)c(N[C@@H]2C[C@H](C(C)(F)F)[C@@H](O)[C@H]2O)n1 [Example 5189] | < 0.5 µM
Cc1nc(N)nc(N[C@@H]2C[C@H](C(F)F)[C@@H](O)[C@H]2O)c1-c1nc2c(C3CC3)nccc2s1 [Example 5190] | < 0.5 µM
Cc1nc(NCC2(C)CC2)nc(N[C@@H]2C[C@H](C(F)F)[C@@H](O)[C@H]2O)c1-c1nc2c(C3CC3)nccc2s1 [Example 5191] | < 0.5 µM
Cc1nc(NCCC2CC2)nc(N[C@@H]2C[C@H](C(F)F)[C@@H](O)[C@H]2O)c1-c1nc2c(C3CC3)nccc2s1 [Example 5192] | < 0.5 µM
Cc1nc(NCCC(C)C)nc(N[C@@H]2C[C@H](C(F)F)[C@@H](O)[C@H]2O)c1-c1nc2c(C3CC3)nccc2s1 [Example 5193] | < 0.5 µM
CSCCNc1nc(C)c(-c2nc3c(C4CC4)nccc3s2)c(N[C@@H]2C[C@H](C(F)F)[C@@H](O)[C@H]2O)n1 [Example 5194] | < 0.5 µM
COC1(CNc2nc(C)c(-c3nc4c(C)nccc4s3)c(N[C@@H]3C[C@H](C(C)(C)O)[C@@H](O)[C@H]3O)n2)CCCCC1 [Example 5195] | < 0.5 µM
CCC(CNc1nc(C)c(-c2nc3c(C)nccc3s2)c(N[C@@H]2C[C@H](C(C)(C)O)[C@@H](O)[C@H]2O)n1)OC (stereo partly shown) [Example 5196] | < 0.5 µM
Cc1nc(NCC2CC2)nc(NC2(CO)CCCCC2)c1-c1nc2c(C)nccc2s1 [Example 5199] | < 0.5 µM
COCCNc1nc(C)c(-c2nc3c(C)nccc3s2)c(NC2(CO)CCCCC2)n1 [Example 5200] | < 0.5 µM

SMILES | EC90
COCC1(Nc2nc(NCC3CC3)nc(C)c2-c2nc3c(C)nccc3s2)CCCCC1 [Example 5201] | < 0.5 µM
Cc1nc(NC(=N)NCC2CC2)nc(N[C@@H]2C[C@H](C(C)(C)O)[C@@H](O)[C@H]2O)c1-c1nc2c(C)nccc2s1 [Example 5202] | > 25 µM
Cc1nc(N[C@H](C)c2c(F)c(F)c(C)c(F)c2F)nc(N[C@@H]2C[C@H](CS(=O)(=O)c3ccc(F)cc3)[C@@H](O)[C@H]2O)c1-c1nc2c(C3CC3)nccc2s1 [Example 5203] | 0.5 to 5 µM
Cc1nc(N[C@H](C)c2c(F)c(F)c(C)c(F)c2F)nc(N[C@@H]2C[C@H](C(C)(C)O)[C@@H](O)[C@H]2O)c1-c1nc2c(C)nccc2s1 [Example 5204] | < 0.5 µM
Cc1nc(N[C@H](C)c2c(F)c(F)c(C)c(F)c2F)nc(N[C@@H]2C[C@H](CS(C)(=O)=O)[C@@H](O)[C@H]2O)c1-c1nc2c(C3CC3)nccc2s1 [Example 5205] | < 0.5 µM
Cc1nc(NCc2c(F)cccc2F)nc(N[C@@H]2C[C@H](COc3c(F)cccc3F)[C@@H](O)[C@H]2O)c1-c1nc2c(C)nccc2s1 [Example 5206] | < 0.5 µM
Cc1nc(N[C@H](C)C2CC2)nc(N[C@@H]2C[C@H](COc3c(F)cccc3F)[C@@H](O)[C@H]2O)c1-c1nc2c(C)nccc2s1 [Example 5207] | < 0.5 µM
Cc1nc(NCCCOCC(F)(F)F)nc(N[C@@H]2C[C@H](C(C)(C)O)[C@@H](O)[C@H]2O)c1-c1nc2c(C)nccc2s1 [Example 5208] | < 0.5 µM
Cc1nc(NCc2c(F)cccc2F)nc(N[C@@H]2C[C@H](CS(=O)(=O)c3cc(F)cc(F)c3)[C@@H](O)[C@H]2O)c1-c1nc2c(N)nccc2s1 [Example 5209] | < 0.5 µM
Cc1nc(NCC(F)(F)C(F)(F)C(F)(F)F)nc(N[C@@H]2C[C@H](C(C)(C)O)[C@@H](O)[C@H]2O)c1-c1nc2c(N)nccc2s1 [Example 5210] | < 0.5 µM
Cc1nc(N)nc(N[C@@H]2C[C@H](CS(=O)(=O)c3cc(F)cc(F)c3)[C@@H](O)[C@H]2O)c1-c1nc2c(N)nccc2s1 [Example 5211] | < 0.5 µM
Cc1nc(N)nc(N[C@@H]2C[C@H](COc3c(F)cccc3F)[C@@H](O)[C@H]2O)c1-c1nc2c(C)nccc2s1 [Example 5212] | < 0.5 µM
Cc1nc(NCC(F)(F)C(F)(F)F)nc(N[C@@H]2C[C@H](COc3c(F)cccc3F)[C@@H](O)[C@H]2O)c1-c1nc2c(C)nccc2s1 [Example 5213] | < 0.5 µM
COCCNc1nc(C)c(-c2nc3c(C)nccc3s2)c(NC2(C)CCC2)n1 [Example 5215] | < 0.5 µM
Cc1nc(NCc2c(F)cccc2F)nc(NC2(C)CCC2)c1-c1nc2c(C)nccc2s1 [Example 5216] | < 0.5 µM
CO[C@H]1COC[C@@H]1Nc1nc(C)c(-c2nc3c(C)nccc3s2)c(N[C@@H]2C[C@H](C(C)(C)O)[C@@H](O)[C@H]2O)n1 [Example 5218] | < 0.5 µM
Cc1nc(NCCO)nc(NC2(C)CCC2)c1-c1nc2c(C)nccc2s1 [Example 5219] | < 0.5 µM
Cc1nc(NCC(F)(F)C(F)(F)F)nc(NC2(C)CCC2)c1-c1nc2c(C)nccc2s1 [Example 5220] | 0.5 to 5 µM
Cc1nc(NCC(C)(F)F)nc(N[C@@H]2C[C@H](C(C)(C)O)[C@@H](O)[C@H]2O)c1-c1nc2c(C)nccc2s1 [Example 5221] | < 0.5 µM
Cc1nc(NCC2(O)CCCC2)nc(NC2(C)CCC2)c1-c1nc2c(C)nccc2s1 [Example 5222] | < 0.5 µM
Cc1nc(NCC(F)(F)C(F)(F)F)nc(N[C@@H]2C[C@H](CS(C)(=O)=O)[C@@H](O)[C@H]2O)c1-c1nc2c(C3CC3)nccc2s1 [Example 5223] | < 0.5 µM
Cc1nc(NCC(F)(F)C(F)(F)F)nc(N[C@@H]2C[C@H](CO)[C@@H](O)[C@H]2O)c1-c1nc2c(C3CC3)nccc2s1 [Example 5224] | < 0.5 µM
Cc1nc(NCC(F)(F)C(F)(F)F)nc(N[C@@H]2C[C@H](CS(=O)(=O)c3ccc(F)cc3)[C@@H](O)[C@H]2O)c1-c1nc2c(C3CC3)nccc2s1 [Example 5225] | < 0.5 µM
CO[C@@H](CNc1nc(C)c(-c2nc3c(C)nccc3s2)c(N[C@@H]2C[C@H](CO)[C@@H](O)[C@H]2O)n1)c1ccc(F)cc1 [Example 5226] | < 0.5 µM
CO[C@@H](CNc1nc(C)c(-c2nc3c(C4CC4)nccc3s2)c(N[C@@H]2C[C@H](CO)[C@@H](O)[C@H]2O)n1)c1ccc(F)cc1 [Example 5227] | < 0.5 µM
CO[C@@H](CNc1nc(C)c(-c2nc3cnccc3s2)c(N[C@@H]2C[C@H](C(C)(C)O)[C@@H](O)[C@H]2O)n1)c1ccc(F)cc1 [Example 5228] | < 0.5 µM
CO[C@@H](CNc1nc(C)c(-c2nc3c(C)nccc3s2)c(N[C@@H]2C[C@H](C(C)(C)O)[C@@H](O)[C@H]2O)n1)c1ccc(F)cc1 [Example 5229] | < 0.5 µM
